Reference: patent US20250313572A1, “MACROCYCLIC MCL-1 INHIBITORS AND METHODS OF USE” (AbbVie Inc., priority 2017, published 2025)
Read-outs that look alike come from different tables or passages of the source.

Assays:
GST-MCL-1 = GST-MCL-1 (Homo sapiens, UniProt Q07820); experiment: TR-FRET MCL-1 binding assay (competition with probe F-Bak)
Procedure, shortened: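 Displacement of F-Bak from GST-MCL-1 is detected by time-resolved FRET with a Tb-labelled anti-GST antibody, with excitation 340/35 nm and emission 520/525 and 495/510 nm, after 2 hours at room temperature. Compounds were titrated in 11 three-fold steps starting at 25 μM final, in buffer alone or in 10% HS.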

[1] = system: AMO-1 human multiple myeloma tumor cell line; experiment: AMO-1 cell viability assay (CellTiter-Glo, 24 hours); format: cell-based; conditions: Homo sapiens, AMO1, 24 h, read-out: AMO-1 Viability IC50 (μM, 10% FBS), 10% FBS, 24 hours of compound treatment
[2] = system: NCI-H929 human multiple myeloma tumor cell line; experiment: NCI-H929 cell viability assay (CellTiter-Glo, 24 hours); format: cell-based; conditions: Homo sapiens, NCI-H929, 24 h, read-out: H929 Viability IC50 (μM, 10% FBS), 10% FBS, 24 hours of compound treatment
[3] = MCL-1 Binding Ki (nM, 10% HS), in the presence of 10% HS (human serum)
[4] = without HS, read-out: MCL-1 Binding Ki

Chain of GST-MCL-1 (Q07820 whole entry): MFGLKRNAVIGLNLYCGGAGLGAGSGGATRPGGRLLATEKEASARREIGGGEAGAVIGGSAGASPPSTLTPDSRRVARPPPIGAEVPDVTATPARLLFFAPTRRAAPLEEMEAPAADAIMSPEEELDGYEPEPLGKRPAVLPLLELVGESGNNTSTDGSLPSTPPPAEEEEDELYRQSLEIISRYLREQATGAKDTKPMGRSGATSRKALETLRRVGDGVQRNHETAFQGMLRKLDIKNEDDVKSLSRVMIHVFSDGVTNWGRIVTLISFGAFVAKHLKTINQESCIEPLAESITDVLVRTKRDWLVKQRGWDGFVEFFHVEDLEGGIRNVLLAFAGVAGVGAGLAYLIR

| SMILES | Ki (GST-MCL-1; [3]) | Ki (GST-MCL-1; [4]) | IC50 [1] | IC50 [2] |
| --- | --- | --- | --- | --- |
| Cc1c(Cl)c2c(Cl)c(C)c1-c1c(-c3ccc(F)cc3)sc3ncnc(c13)O[C@@H](C(=O)O)Cc1cc(ccc1OCc1ccnc(C(C)(C)COCCOC[C@H]3COCCO3)n1)OC[C@@H](CN1CCN(C)CC1)O2 [Example 80, (7R,16R)-19,23-dichloro-10-({2-[1-(2-{[(2R)-1,4-dioxan-2-yl]methoxy}ethoxy)-2-methylpropan-2-yl]pyrimidin-4-yl}methoxy)-1-(4-fluorophenyl)-20,22-dimethyl-16-[(4-methylpiperazin-1-yl)methyl]-7,8,15,16-tetrahydro-18,21-etheno-13,9-(metheno)-6,14,17-trioxa-2-thia-3,5-diazacyclononadeca[1,2,3-cd]indene-7-carboxylic Acid] | 0.797 nM | 0.107 nM | 0.000189 µM | 0.000954 µM |
| Cc1c(Cl)c2c(Cl)c(C)c1-c1c(-c3ccc(F)cc3)sc3ncnc(c13)O[C@@H](C(=O)O)Cc1cc(ccc1OCc1ccnc(N3C[C@H](O)[C@@H](O)C3)n1)OC[C@@H](CN1CCN(C)CC1)O2 [Example 56, (7R,16R)-19,23-dichloro-10-({2-[(3S,4S)-3,4-dihydroxypyrrolidin-1-yl]pyrimidin-4-yl}methoxy)-1-(4-fluorophenyl)-20,22-dimethyl-16-[(4-methylpiperazin-1-yl)methyl]-7,8,15,16-tetrahydro-18,21-etheno-13,9-(metheno)-6,14,17-trioxa-2-thia-3,5-diazacyclononadeca[1,2,3-cd]indene-7-carboxylic Acid] | 1.18 nM | 0.157 nM | 0.0534 µM | 0.13 µM |
| Cc1c(Cl)c2c(Cl)c(C)c1-c1c(-c3ccc(F)cc3)sc3ncnc(c13)O[C@@H](C(=O)O)Cc1cc(ccc1OCc1ccnc(-c3cccc(CN4CCOCC4)c3)n1)OC[C@@H](CN1CCN(C)CC1)O2 [Example 147, (7R,16R)-19,23-dichloro-1-(4-fluorophenyl)-20,22-dimethyl-16-[(4-methylpiperazin-1-yl)methyl]-10-[(2-{3-[(morpholin-4-yl)methyl]phenyl}pyrimidin-4-yl)methoxy]-7,8,15,16-tetrahydro-18,21-etheno-13,9-(metheno)-6,14,17-trioxa-2-thia-3,5-diazacyclononadeca[1,2,3-cd]indene-7-carboxylic Acid] | 0.098 nM | 0.002 nM | 0.000204 µM | 0.000162 µM |
| Cc1c2ccc(c1Cl)O[C@H](CN1CCN(C)CC1)COc1ccc(OCc3ccnc([C@H]4CCCN4C(=O)CCP(C)(C)=O)n3)c(c1)C[C@H](C(=O)O)Oc1ncnc3sc(-c4ccc(F)cc4)c-2c13 [Example 55, (7R,16R)-19-chloro-10-[(2-{(2R)-1-[3-(dimethylphosphoryl)propanoyl]pyrrolidin-2-yl}pyrimidin-4-yl)methoxy]-1-(4-fluorophenyl)-20-methyl-16-[(4-methylpiperazin-1-yl)methyl]-7,8,15,16-tetrahydro-18,21-etheno-13,9-(metheno)-6,14,17-trioxa-2-thia-3,5-diazacyclononadeca[1,2,3-cd]indene-7-carboxylic Acid] | 92.6 nM | 38.2 nM | > 1 µM | > 1 µM |
| Cc1c(Cl)c2c(Cl)c(C)c1-c1c(-c3ccc(F)cc3)sc3ncnc(c13)O[C@@H](C(=O)O)Cc1cc(ccc1OCc1ccnc(N3CCC4(CCCNC4=O)CC3)n1)OC[C@@H](CN1CCN(C)CC1)O2 [Example 61, (7R,16R)-19,23-dichloro-1-(4-fluorophenyl)-20,22-dimethyl-16-[(4-methylpiperazin-1-yl)methyl]-10-{[2-(1-oxo-2,9-diazaspiro[5.5]undecan-9-yl)pyrimidin-4-yl]methoxy}-7,8,15,16-tetrahydro-18,21-etheno-13,9-(metheno)-6,14,17-trioxa-2-thia-3,5-diazacyclononadeca[1,2,3-cd]indene-7-carboxylic Acid] | 4.2 nM | 0.364 nM | 0.00886 µM | 0.0115 µM |
| Cc1c(Cl)c2c(Cl)c(C)c1-c1c(-c3ccc(F)cc3)sc3ncnc(c13)O[C@@H](C(=O)O)Cc1cc(ccc1OCc1ccnc(C3=CCS(=O)(=O)CC3)n1)OC[C@@H](CN1CCN(C)CC1)O2 [Example 34, (7R,16R)-19,23-dichloro-10-{[2-(1,1-dioxo-1,2,3,6-tetrahydro-1λ^6-thiopyran-4-yl)pyrimidin-4-yl]methoxy}-1-(4-fluorophenyl)-20,22-dimethyl-16-[(4-methylpiperazin-1-yl)methyl]-7,8,15,16-tetrahydro-18,21-etheno-13,9-(metheno)-6,14,17-trioxa-2-thia-3,5-diazacyclononadeca[1,2,3-cd]indene-7-carboxylic Acid] | 0.276 nM | 0.016 nM | 0.00123 µM | 0.00242 µM |
| Cc1c(Cl)c2c(Cl)c(C)c1-c1c(-c3ccc(F)cc3)sc3ncnc(c13)O[C@@H](C(=O)O)Cc1cc(ccc1OCc1ccnc(-c3cccc(CCN4CCOCC4)c3)n1)OC[C@@H](CN1CCN(C)CC1)O2 [Example 143, (7R,16R)-19,23-dichloro-1-(4-fluorophenyl)-20,22-dimethyl-16-[(4-methylpiperazin-1-yl)methyl]-10-[(2-{3-[2-(morpholin-4-yl)ethyl]phenyl}pyrimidin-4-yl)methoxy]-7,8,15,16-tetrahydro-18,21-etheno-13,9-(metheno)-6,14,17-trioxa-2-thia-3,5-diazacyclononadeca[1,2,3-cd]indene-7-carboxylic Acid] | 0.175 nM | 0.023 nM | 0.000216 µM | 0.000203 µM |
| Cc1c(Cl)c2c(Cl)c(C)c1-c1c(-c3ccc(F)cc3)sc3ncnc(c13)O[C@@H](C(=O)O)Cc1cc(ccc1OCc1ccnc(N3CCS(=O)(=O)CC3)n1)OC[C@@H](CN1CCN(C)CC1)O2 [Example 75, (7R,16R)-19,23-dichloro-10-{[2-(1,1-dioxo-1λ^6-thiomorpholin-4-yl)pyrimidin-4-yl]methoxy}-1-(4-fluorophenyl)-20,22-dimethyl-16-[(4-methylpiperazin-1-yl)methyl]-7,8,15,16-tetrahydro-18,21-etheno-9,13-(metheno)-6,14,17-trioxa-2-thia-3,5-diazacyclononadeca[1,2,3-cd]indene-7-carboxylic Acid] | 2.67 nM | 0.375 nM | 0.00386 µM | 0.00914 µM |
| COC1CC2(C1)CN(c1nccc(COc3ccc4cc3C[C@H](C(=O)O)Oc3ncnc5sc(-c6ccc(F)cc6)c(c35)-c3c(C)c(Cl)c(c(Cl)c3C)O[C@H](CN3CCN(C)CC3)CO4)n1)C2 [Example 79, (7R,16R)-19,23-dichloro-1-(4-fluorophenyl)-10-{[2-(6-methoxy-2-azaspiro[3,3]heptan-2-yl)pyrimidin-4-yl]methoxy}-20,22-dimethyl-16-[(4-methylpiperazin-1-yl)methyl]-7,8,15,16-tetrahydro-18,21-etheno-9,13-(metheno)-6,14,17-trioxa-2-thia-3,5-diazacyclononadeca[1,2,3-cd]indene-7-carboxylic Acid] | 1 nM | 0.088 nM | 0.000418 µM | 0.00163 µM |
